Consider two compounds from US12016829B2, “Pharmaceutical composition and method for treating seizure disorders” (Pike Therapeutics Inc, priority 2019, dated 2024).

The nature of data set [1]: Oral bioavailability, AUC and plasma concentration of CBD. It is filed as in vivo, patient. From the text:
When a medication is orally administered, its bioavailability generally decreases due to incomplete absorption and first-pass metabolism and may vary from patient to patient. The compositions of the disclosure overcome these problems because in transdermal delivery, active agent is delivered directly into systemic circulation through the skin, and it escapes the first pass hepatic metabolism therefore to achieve the desired therapeutic activity less drug is required, resulting into less adverse effects or side effects.
So, the actual dose delivering to patient upon oral delivery is described in Table 3
So, 50 sqcm patch with 7.5 ug/sqcm/hr flux will deliver 9 mg of drug in one day. And 100 sqcm of patch will deliver 18 mg of drug with same flux profile.

The conditions of data set [2]: significant number of patients, cited from earlier work.
For data set [3] the following is noted: cited from earlier work.

Where two headings read alike, the source gives them in different places.

As to `C=C(C)[C@@H]1CCC(C)=C[C@H]1c1c(O)cc(CCCCC)cc1O` [CBD, 2-[(1R,6R)-6-isopropenyl-3-methylcyclohex-2-en-1-yl]-5-pentylbenzene-1,3-diol], the bioavailability in data set [1] (human, in vivo, oral, read-out: average bioavailability taken for calculation) was 15%. Moreover, the “Avg. Oral Plasma Concentration” value in data set [1] (oral dose 5 mg/kg/day) came out at 10.0 ng/mL; in data set [1] (oral dose 10 mg/kg/day) it was 30.0 ng/mL. For the same compound, the “reduction of total convulsive frequency” value in data set [2] (TRE (Dravet syndrome, myoclonic absence seizures, FIRES)) is “greater than 50%”. Also, in data set [2], the “seizure status at the end of three months treatment” value is reported as “seizure free”. Moreover, the “Oral AUC” value is 241 ng·h/mL in data set [3] (oral dose 5 mg/kg/day) and 722 ng·h/mL in data set [3] (oral dose 10 mg/kg/day).

For `CCCCCc1cc(O)c2c(c1)OC(C)(C)c1ccc(C)cc1-2` [Cannabinol], the “share of the administered dose that reaches systemic circulation” value in data set [3] (oral administration, hepatic first pass metabolism) is given as 10%-20%.

A word on the bioavailability: it is dose-corrected exposure relative to a reference, in per cent.
